Tests used:
[1] = system: H-DNA 1 (DNA, aptamer) GCGGGCGGTTGTATAGCGGTTTTTTCTCACACGAATTCATCTGAC; test: competitive fluorescent lateral flow strip; details: for Cross-reactivity: T-DNA competes, [AMP] at IC50/[M] at IC50, AMP = 100
[2] = system: H-DNA 1' (DNA, aptamer) GCGGGCGGTTGTATAGCGGTTTTTTCTCACACGAATTCATCTGAC; test: competitive fluorescent lateral flow strip; details: T-DNA competes on T line; AMP 150 and 200 ng/L; slight signal change

With `CC1(C)S[C@@H]2[C@H](NC(=O)Cc3ccccc3)C(=O)N2[C@H]1C(=O)O` the Cross-reactivity ([1]; n = 3, RSD 3.56%) was 7.40%.
For `CC1(C)S[C@@H]2[C@H](NC(=O)[C@H](N)c3ccccc3)C(=O)N2[C@H]1C(=O)O`, the binding [2] was “weak” and the binding ([1]; T-DNA (complementary strand) competes on T line, AMP 50-300 ng/L) was “yes”.
`CN(C)[C@@H]1C(=O)C(C(N)=O)=C(O)[C@@]2(O)C(=O)C3=C(O)c4c(O)cccc4[C@@](C)(O)[C@H]3C[C@@H]12` showed a Cross-reactivity ([1]; n = 3, RSD 2.34%) of 0.67%.
`CN(C)[C@@H]1C(=O)C(C(N)=O)=C(O)[C@@]2(O)C(=O)C3=C(O)c4c(O)cccc4[C@@](C)(O)[C@H]3[C@H](O)[C@@H]12` showed a Cross-reactivity ([1]; n = 3, RSD 2.76%) of 0.88%.
With `NC[C@H]1O[C@H](O[C@H]2[C@H](O)[C@@H](O[C@H]3O[C@H](CO)[C@@H](O)[C@H](N)[C@H]3O)[C@H](N)C[C@@H]2N)[C@H](O)[C@@H](O)[C@@H]1O` the Cross-reactivity ([1]; n = 3, RSD 3.89%) was 5.53%.
In the case of `O=C(N[C@H](CO)[C@H](O)c1ccc([N+](=O)[O-])cc1)C(Cl)Cl`, the Cross-reactivity ([1]; n = 3, RSD 4.34%) is reported as 6.60%.
